Patent US9284297B2, “Halofuginone analogs for inhibition of tRNA synthetases and uses thereof” (President and Fellows of Harvard College, priority 2008, dated 2016)

Assays:
[1] = system: Differentiation of primary naïve T-cells into Th17 cells; experiment: Inhibition of Th17 differentiation of primary naïve T-cells by halofuginone analogs; format: cell-based, murine; design: key: “+++” vs. “++” vs. “+” in general denotes ˜4-fold differences in potency; “+++” vs. “++” vs. “+” in general denotes ˜4-fold differences in potency; “+++” vs. “++” vs. “+” in general denotes ˜4-fold differences in potency; “−” denotes no activity at any dose tested, up to 1000× the effective dose of halofuginone; conditions: T-cell receptor stimulation+IL-6+TGFb
Procedure: Naïve T-cells were stimulated to differentiate in the presence or absence of 10 nM halofuginone, with 1 mM of the indicated amino acids added to the medium, and stained for Th17 differentiation on day 4. Naïve murine T cells were activated in the presence or absence of TGFβ plus IL-6 as indicated, expanded in for 4 days and restimulated with PMA and ionomycin for intracellular cytokine staining. […] Bars indicate percentage of cells differentiation as Th17 as indicated by IL17 expression.
The effect of different halofuginone and analogs thereof on differentiation of naïve T-cells was assayed as described in legend for FIG. 4 above. Differentiation of primary naïve T-cells into Th17 cells following T-cell receptor stimulation+IL-6+TGFb. “+++” vs. “++” vs. “+” in general denotes ˜4-fold differences in potency. “−” denotes no activity at any dose tested, up to 1000× the effective dose of halofuginone.

STAT3 phosphorylation = experiment: Kinetics of STAT3 phosphorylation in developing Th17 cells; format: cell-based, murine; conditions: TGFβ plus IL-6; 5 nM or 10 nM HF
Procedure: FIG. 6. […] FIG. 6A is a set of representative histograms displaying the kinetics of STAT3 phosphorylation in developing Th17 cells treated with or without halofuginone. Resting naïve T cells (grey, shaded peak), T cells activated in the presence of TGFβ plus IL-6 (TGFβ/IL-6) treated with 10 nM MAZ1310 (light gray trace), 5 nM HF (medium gray trace), or 10 nM HF (dark gray trace). T cells were fixed at the indicated times and intracellular phospho-STAT3 staining was performed.
(§1) Th17 differentiation is synergistically regulated by TGFβ and the pro-inflammatory cytokines IL-6 and IL-21. […] Since STAT3 is the major transducer of IL-6 and IL-21 signaling, the kinetics of STAT3 phosphorylation in HF-treated T cells were examined.

[2] = system: TGFβ-induced Smad phosphorylation and lymphocyte responses to TGFβ; conditions: cited from earlier work
[3] = system: TGFβ-induced Smad phosphorylation and lymphocyte responses to TGFβ; experiment: TGFβ signaling in T and B cells; format: cell-based, murine; conditions: low dose HF; 10 μM SB-431542
Procedure: FIG. 10. […] FIG. 10A is a set of FACS analyses of CD4^+ CD25^− T cells activated in Th1 or Th2 polarizing conditions, either in the presence or absence of TGFβ. DMSO, 10 nM HF, 10 nM MAZ1310, or 10 μM SB-431542 added as indicated at the time of activation. Intracellular cytokine staining was performed on expanded T cells on day 5.
FIG. 10D depicts western blot analyses of purified CD4^+ CD25^− T cells treated with DMSO, 40 nM MAZ1310, titrating concentrations of HF (2.5-40 nM) or 10 μM SB-431542 for 30 minutes in complete medium supplemented with 0.1% fetal calf serum. T cells were then activated in the presence or absence of 3 ng/ml TGFβ. Whole cell extracts were prepared after 1 hour of stimulation and western blot analyses were performed using the indicated antibodies.
as §1
Whole cell lysates were generated from T cells activated for the indicated times. For STAT3 and Smad2/3 western blots cells were harvested, washed in PBS and lysed in 50 mM Tris, pH 7.4, 0.1% SDS, 1% Triton-X100, 140 mM NaCl, 1 mM EDTA, 1 mM EGTA supplemented with protease inhibitors tablets (Roche, Germany), 1 mM NaF and 1 mM Na3VO4. […]

[4] = system: eIF2α phosphorylation and ATF4 protein levels in CD4+ CD25− T cells; experiment: Amino acid response (AAR) pathway activation in T cells, western blot; format: cell-based, mice
Procedure: CD4+ CD25− T cells purified from wild type of GCN2−/− mice were activated through TCR for 4 hours in the presence of halofuginone (10 nM) or 9 (MAZ1310, 10 nM). Whole cell lysates were analyzed by SDS PAGE/Western blot and antibodies indicated.
Naïve T-cells were treated to stimulate the T-cell receptor (TCR) in the presence or absence of 10 nM halofuginone in the presence of 1 mM added amino acid, and then assayed for eIF2alpha activity phosphorylation by SDS PAGE/Western blot.
HF induced detectable eIF2α phosphorylation at 2.5 nM, and this effect plateaued at 5-10 nM HF (FIG. 7D). […] AAR activation was a general consequence of HF treatment; HF induced eIF2α phosphorylation, not only in T cells activated in Th17-priming conditions, but also in resting naïve T cells and T cells activated in ThN, Th1, Th2, and iTreg polarizing conditions (FIG. 7F). […] Thus, the rapid activation of the AAR pathway by HF could underlie both its selective inhibition of Th17 differentiation and its effects on fibroblasts (Pines and Nagler, Gen. Pharmacol. 30:445, 1998).
To delineate the stress response pathway activated by HF, the effects of amino acid starvation with those of tunicamycin (an inducer of ER stress) or HF treatment during T cell activation were compared.
Whole cell lysates were generated from T cells activated for the indicated times. For STAT3 and Smad2/3 western blots cells were harvested, washed in PBS and lysed in 50 mM Tris, pH 7.4, 0.1% SDS, 1% Triton-X100, 140 mM NaCl, 1 mM EDTA, 1 mM EGTA supplemented with protease inhibitors tablets (Roche, Germany), 1 mM NaF and 1 mM Na3VO4. For eIF2α and ATF4 western blots, cells were harvested as above and lysed in 50 mM Tris, pH 7.4, 2% SDS, 20% glycerol and 2 mM EDTA supplemented with protease and phosphatase inhibitors as above. All lysates were cleared via centrifugation and 15-30 μg of protein was resolved by SDS-PAGE. Protein was transferred to nitrocellulose membranes, blocked and blotted using specific antibodies. Antibodies used for western blot analysis were anti-phospho-Smad2, anti-STAT3 (pY705), anti-STAT3, anti-eIF2α^pS51, anti-eIF2α (all from Cell Signaling Technology, Danvers, Mass.). Anti-ATF4/CREB2 and anti-β-actin were purchased from Santa Cruz Biotechnology (Santa Cruz, Calif.). HRP-conjugated secondary antibodies were all purchased from Sigma, with the exception of HRP-conjugated anti-armenian hamster antibody (Jackson Immunoresearch, West Grove, Pa.).

## O=C(CC1NCCCC1O)Cn1cnc2cc(Br)c(Cl)cc2c1=O (centres unmarked) [Compound 1, 7-bromo-6-chloro-3-[3-(3-hydroxy-2-piperidinyl)-2-oxopropyl]-4(3H)-quinazolinone]
[1]
  Inhibition of Th17 differentiation: +++
STAT3 phosphorylation
  STAT3 phosphorylation: decreased the maintenance of STAT3 phosphorylation, beginning around 12 hours post activation
[2]
  concentrations attenuating TGFβ signaling: > 50 nM
[3]
  effect on TGFβ-induced Smad phosphorylation and other lymphocyte responses to TGFβ: inhibited neither TGFβ-induced Smad phosphorylation nor a variety of other lymphocyte responses to TGFβ
[4]; 10 nM HF
  time to maximum eIF2α phosphorylation: ≤ 2 h
[4]; 10 nM halofuginone, 1 mM added amino acid
  rescue of eIF2alpha phosphorylation by added amino acid: blocked by added proline
[4]; 10 nM, 4 hours, T cells from wild type or GCN2−/− mice
  phosphorylation of Ser51 of eIF2alpha, GCN2 dependence: leads to phosphorylation of Ser51 of eif2alpha only in wild type cells and not in GCN2−/− cells
[4]; 4 hours-post TCR activation
  concentration at which eIF2α phosphorylation plateaued: 5 to 10 nM
  concentration inducing detectable eIF2α phosphorylation: 2.5 nM
  concentration with highest ATF4 expression levels: 5 to 10 nM
[4]; 4 hours, 10 nM HF or 1 μg/ml tunicamycin
  stress response pathway: eIF2α phosphorylation, ATF4 expression, Xbp-1 splicing: inducing eIF2α phosphorylation without promoting Xbp-1 splicing
